Patent US6660910B1, “Selection marker” (Syngenta Mogen B.V., priority 1997, dated 2003)

Tests used:
Assay type in all cases: cell-based
[1] = system: non-morphogenic cell suspensions of Oryza sativa cv. IR 52; assay: Rice transformation by particle gun with cyanamide or hygromycin selection
Experimental: Described below is the method used for transformation of non-morphogenic cell suspensions of Oryza sativa cv. IR 52 using a particle inflow gun (PIG) according to Finer et al. (Plant Cell Rep. 11, 323-328, 1992).
A long-term, non-morphogenic suspension culture of Oryza sativa cv. IR 52 was subcultured in weekly intervals in liquid LS-4 (Linsmaier and Skoog, Physiol. Plant. 18, 100-127, 1962) medium and maintained on a rotary shaker (110 rpm) at 28° C. in the dark. (The contents of the LS-4 medium can be found in Table Z). 3-4 days after the last subculture 1.5 ml of this cell suspension (appro. 1.5×10^6 cells) were evenly spread on a filter paper (Whatman no 4) which was subsequently placed on solidified LS-4 medium and cultivated in the dark at 28° C. for 24 h and directly used for bombardment thereafter. For microprojectile bombardment a home-made particle inflow gun (PIG) according to Finer et al. (1992) was used. 300 μg tungsten particles coated with either pMOG 617 (35S-gus and 35S-hyg) or pMOG 873 (35S-cah) were loaded on a particle support. The particles were accelerated by a 2.5 bar helium pulse and had to pass a 500 μm metal stop screen, placed 2 cm under the particle support. The suspension cells were placed 15 cm under the particle support. The PIG was evacuated to 30 mbar before bombardment. After bombardment the cells were cultured at 28° C. in the dark for 3 days. Then the filters with the cells were transferred to solid LS-4 medium containing various concentrations of cyanamide or 50 mg/l hygromycinB (see table 6). The subculture was repeated every 9 days. Resistant microcalli that were visible after 4-6 weeks were transferred to fresh LS-4 medium containing the respective selective agent. From two experiments 7+41 calli transformed with pMOG617 were found resistant to hygromycin, while for the transformation with pMOG873 7 calli survived cyanamide 20 mg/l in the first experiment (results from the second experiment not yet available) and 0+4 calli remained viable on 40 mg/l cyanamide. […] The transgenic nature was confirmed by testing parts of the developing callus for the presence of the DNA in the callitransformed with pMOG873.

[2] = system: regenerable embryogenic suspension of Grand nain; assay: Kill curves in banana (Musa); settings: for % Live cells as assessed by FDA: 21 days; for % Callus Growth: approximate visual estimate
Experimental: To test the potential of cyanamide as a selection agent for transformation in banana two kill curves were set up with a regenerable embryogenic suspension of Grand nain 6 day old embryogenic suspension (Ed6b) cultures, subbed routinely in M2 2,4D liquid, containing 4.32 g/l MS salts, 45 g/l sucrose, standard 1×concn. MS vitamins, 100mg/l glutamine, 100 mg/l myo-inositol, 100 mg/l biotin, 100mg/l malt extract at pH 5.3 and added after autoclaving 1.2 mg/l 2,4-D and 0.8 mg/l picloram.
Cultures were sieved (>250μ, <710μ) and aliquots of approx 50 μl sieved culture in 300μl volume of liquid were pipetted onto two kill curve media as detailed below (3 reps per plate). Culture growth and survival were monitored over the following 3 weeks and cell survival assessed after 21 days via FDA staining.
Kill Curve Medium A : M2/MS/1.0 2,4-D (as M2/MS/2,4-D except only 1.0 mg/l 2,4-D, no picloram and +2.25 g/l gelrite): this medium promotes the rapid division and growth of embryogenic callus, but not embryos. Kill Curve Medium B : M2/SH/0.5Pic, 0.5 2,4-D (as M2/MS/2,4-D except only 0.5 mg/l 2,4-D and 0.5 mg/l picloram, SH salts (4.32 g/1) instead of MS, +2.25 g/l gelrite): This medium promotes the early development of embryos which can be matured and germinated by transfer to alternative media.
Cyanamide was added to both media types, after autoclaving, to concentrations of 0,20,30,50,75,100,150 mg/l.

[3] = system: BMS cells; assay: Maize killing curve; settings: for Observations (light microscope) / % dead cells (light microscope): Day 15; for % dead cells (light microscope): clumps of cells
Experimental: Stock solutions of cyanamide were prepared in water at 10 and 100 mg/ml and filter sterilised. Aliquots were stored at −20° C. Media were prepared by adding MS medium (4.4 g), sucrose (20 g), 2,4-D (2.0 mg) and agar (8 g) to 1 litre of water. […] BMS liquid was prepared as above minus agar. BMS cells were added to media containing cyanamide in three ways:
a. BMS cell suspension added to falcon tube and liquid removed. Then the BMS cells were arranged on the surface of the agar in clumps of approximately 5 mm in diameter, 5 clumps per plate, 3 plates per concentration, while on the base of each petri dish the outline of each clump was marked;
b. Approximately 0.5 ml pack cell volume plus 1.5 ml BMS liquid added to surface of agar and the cells were spread finely over surface of agar. Three plates per treatment were set up.
c. Approximately 0.5 ml pack cell volume plus 1.5 ml BMS liquid were added to filter paper overlying agar. Cells were spread evenly over surface of filter. One plate per treatment was set up.
The plates were sealed with micropore tape and incubated at 25° C. in the dark. […]
Samples were taken from the clumps of cells on all levels of cyanamide for observation under a light microscope. With increasing levels of cyanamide there were increasing numbers of dead cells where the cell contents had shrunk away from the cell wall, and an increase in the number of dark bodied starch grains. Cells were observed resuspended in water and with FDA stain under UV light.

[4] = Medium M2/MS/2,4-D, cyanamide 20 mg/l
[5] = Medium M2/MS/2,4-D, cyanamide 30 mg/l
[6] = Medium M2/MS/2,4-D, cyanamide 50 mg/l
[7] = Medium M2/MS/2,4-D, cyanamide 75 mg/l
[8] = Medium M2/MS/2,4-D, cyanamide 100 mg/l
[9] = Medium M2/MS/2,4-D, cyanamide 150 mg/l
[10] = Medium M2/SH/0.5Pic +0.5 2,4-D, cyanamide 20 mg/l
[11] = Medium M2/SH/0.5Pic +0.5 2,4-D, cyanamide 30 mg/l
[12] = Medium M2/SH/0.5Pic +0.5 2,4-D, cyanamide 50 mg/l
[13] = Medium M2/SH/0.5Pic +0.5 2,4-D, cyanamide 75 mg/l
[14] = Medium M2/SH/0.5Pic +0.5 2,4-D, cyanamide 150 mg/l

Structure (SMILES): N#CN [Cyanamide]
- Callus formation ([1]; 50 mg/l cyanamide or higher): No calli were formed
- Calli that remained viable ([1]; pMOG873 (35S-cah), 40 mg/l cyanamide, two experiments): 0+4
- Calli that survived ([1]; pMOG873 (35S-cah), cyanamide 20 mg/l, first experiment): 7
- Surviving calli positive in a PCR experiment on the cah-gene ([1]; pMOG873, 40 mg/l cyanamide): One of the 4
- Concentration up to which there is no significant visual browning of cultures and release of phenolics [2]: > 75 mg/L
- inhibition at 20 µg/mL ([2]; 20 mg/l, read-out: Inhibition of the growth of embryogenic callus): 40 to 50%
- % Live cells as assessed by FDA [2, 4]: 60%
- % Callus Growth [2, 4]: +30%
- % Live cells as assessed by FDA [2, 5]: 50%
- % Callus Growth [2, 5]: +20%
- % Live cells as assessed by FDA [2, 6]: 20%
- % Callus Growth [2, 6]: 0%
- % Live cells as assessed by FDA [2, 7]: 10%
- % Callus Growth [2, 7]: 0%
- % Live cells as assessed by FDA [2, 8]: 10%
- % Callus Growth [2, 8]: 0%
- % Live cells as assessed by FDA [2, 9]: 0%
- % Callus Growth [2, 9]: 0%
- Embryos Formed (average) [2, 10]: 0
- % Live cells as assessed by FDA [2, 10]: 50%
- Embryos Formed (average) [2, 11]: 0
- % Live cells as assessed by FDA [2, 11]: 40%
- Embryos Formed (average) [2, 12]: 0
- % Live cells as assessed by FDA [2, 12]: 30%
- Embryos Formed (average) [2, 13]: 0
- % Live cells as assessed by FDA [2, 13]: 20%
- Embryos Formed (average) ([2]; Medium M2/SH/0.5Pic +0.5 2,4-D, cyanamide 100 mg/l): 0
- Embryos Formed (average) [2, 14]: 0
- % Live cells as assessed by FDA [2, 14]: 0%
- Embryogenesis ([2]; lowest concentration tested (20 mg/l)): totally inhibited
- Observations (light microscope) ([3]; 10 mg/l): Signs of stress.
- % dead cells (light microscope) ([3]; 10 mg/l): Approx 5% dead.
- Growth of BMS cells ([3]; 10 mg/l, after 15 days): reduction in growth of BMS cells on 10 mg/l was still very clear
- Observations (light microscope) ([3]; 30 mg/l): Striking differences from control cells.
- % dead cells (light microscope) ([3]; 30 mg/l): Approx 15-20% dead.
- Growth of BMS cells ([3]; 50 mg/l plus, after 15 days): showed no signs of growth
- Observations (light microscope) ([3]; 50 mg/l): Increasing number of dead cells and accumulation of starch
- % dead cells (light microscope) ([3]; 50 mg/l): Approx 50% dead.
- Observations (light microscope) ([3]; 100 mg/l): Majority of cell dead.
- % dead cells (light microscope) ([3]; 100 mg/l): Approx 90% dead.
- Observations (light microscope) ([3]; 150 mg/l): Majority of cells dead.
- % dead cells (light microscope) ([3]; 150 mg/l): Approx 95-98% dead.
- Colour of BMS cells ([3]; all levels of cyanamide, after 8 days): no browning of cells was observed
- Growth of BMS cells ([3]; cells spread over surface of media, 10 mg/l, after 8 days): significant reduction in growth
- Cell density of BMS cells ([3]; cells spread over surface of media, 30 mg/l, after 8 days): slight increase in cell density
- Growth of BMS cells ([3]; clumps and cells spread over agar, 30 mg/l plus, after 15 days): notable reduction in growth
- Growth of BMS cell clumps ([3]; clumps on agar, 10 mg/l, after 8 days): had not outgrown their outline but the height of the clumps had increased
- Cyanamide concentration with maximum effect on growth ([3]; clumps on agar, after 8 days): 50 mg/L
- Growth of BMS cell clumps ([3]; repeated experiment, 10 mg/l): slight reduction in growth
- Colour of BMS cell clumps ([3]; repeated experiment, above 50 mg/l): slight orange tinge
- Growth of BMS cells ([3]; repeated experiment, cells spread over agar or on filters, 10 mg/l): slight growth (approximately doubling of the number of original cells)
- Growth of BMS cells ([3]; repeated experiment, cells spread over agar or on filters, 20 mg/l and higher): limited of growth
- Growth of BMS cell clumps ([3]; repeated experiment, from 20 mg/l on): showed no outgrowing from their original outline
